± gives the expanded uncertainty stated by the source.
Experiments:
[1] = Ring tensiometer
[2] = xn = mol fraction of the nth substance listed; details: Ring tensiometer

Which results are given for `CC1CCC(O)CC1` (centres undefined) [4-methylcyclohexanol]?
surface tension liquid-gas ([1]; 293.15 K): 27.63 ± 0.51 mN/m; surface tension liquid-gas ([1]; 298.15 K): 27.3 ± 0.5 mN/m; surface tension liquid-gas ([1]; 303.15 K): 26.98 ± 0.5 mN/m; surface tension liquid-gas ([1]; 308.15 K): 26.61 ± 0.49 mN/m; surface tension liquid-gas ([1]; 313.15 K): 26.31 ± 0.49 mN/m; surface tension liquid-gas ([1]; 318.15 K): 25.96 ± 0.48 mN/m; surface tension liquid-gas ([1]; 323.15 K): 25.63 ± 0.47 mN/m

Which results are given for `CC1CCC(O)CC1` (centres undefined) [4-methylcyclohexanol] + OCCO?
surface tension liquid-gas ([2]; 293.15 K, x1 = 0.05): 38.1 ± 0.6 mN/m; surface tension liquid-gas ([2]; 293.15 K, x1 = 0.097): 34.38 ± 0.53 mN/m; surface tension liquid-gas ([2]; 293.15 K, x1 = 0.258): 32.47 ± 0.51 mN/m; surface tension liquid-gas ([2]; 293.15 K, x1 = 0.329): 31.48 ± 0.5 mN/m; surface tension liquid-gas ([2]; 293.15 K, x1 = 0.389): 30.64 ± 0.49 mN/m; surface tension liquid-gas ([2]; 293.15 K, x1 = 0.535): 30.35 ± 0.5 mN/m; surface tension liquid-gas ([2]; 293.15 K, x1 = 0.623): 29.63 ± 0.5 mN/m; surface tension liquid-gas ([2]; 293.15 K, x1 = 0.768): 29.21 ± 0.51 mN/m; surface tension liquid-gas ([2]; 293.15 K, x1 = 0.864): 28.71 ± 0.51 mN/m; surface tension liquid-gas ([2]; 293.15 K, x1 = 0.899): 28.07 ± 0.5 mN/m; surface tension liquid-gas ([2]; 293.15 K, x1 = 1): 27.63 ± 0.51 mN/m; surface tension liquid-gas ([2]; 298.15 K, x1 = 0.05): 37.85 ± 0.59 mN/m; surface tension liquid-gas ([2]; 298.15 K, x1 = 0.097): 34.18 ± 0.52 mN/m; surface tension liquid-gas ([2]; 298.15 K, x1 = 0.258): 32.24 ± 0.51 mN/m; surface tension liquid-gas ([2]; 298.15 K, x1 = 0.329): 31.24 ± 0.5 mN/m; surface tension liquid-gas ([2]; 298.15 K, x1 = 0.389): 30.37 ± 0.49 mN/m; surface tension liquid-gas ([2]; 298.15 K, x1 = 0.535): 30.05 ± 0.5 mN/m; surface tension liquid-gas ([2]; 298.15 K, x1 = 0.623): 29.34 ± 0.5 mN/m; surface tension liquid-gas ([2]; 298.15 K, x1 = 0.768): 28.92 ± 0.5 mN/m; surface tension liquid-gas ([2]; 298.15 K, x1 = 0.864): 28.41 ± 0.51 mN/m; surface tension liquid-gas ([2]; 298.15 K, x1 = 0.899): 27.75 ± 0.5 mN/m; surface tension liquid-gas ([2]; 298.15 K, x1 = 1): 27.3 ± 0.5 mN/m; surface tension liquid-gas ([2]; 303.15 K, x1 = 0.05): 37.64 ± 0.59 mN/m; surface tension liquid-gas ([2]; 303.15 K, x1 = 0.097): 33.98 ± 0.52 mN/m; surface tension liquid-gas ([2]; 303.15 K, x1 = 0.258): 32.03 ± 0.5 mN/m; surface tension liquid-gas ([2]; 303.15 K, x1 = 0.329): 30.99 ± 0.49 mN/m; surface tension liquid-gas ([2]; 303.15 K, x1 = 0.389): 30.08 ± 0.49 mN/m; surface tension liquid-gas ([2]; 303.15 K, x1 = 0.535): 29.77 ± 0.49 mN/m; surface tension liquid-gas ([2]; 303.15 K, x1 = 0.623): 29.02 ± 0.49 mN/m; surface tension liquid-gas ([2]; 303.15 K, x1 = 0.768): 28.6 ± 0.5 mN/m; surface tension liquid-gas ([2]; 303.15 K, x1 = 0.864): 28.07 ± 0.5 mN/m; surface tension liquid-gas ([2]; 303.15 K, x1 = 0.899): 27.43 ± 0.49 mN/m; surface tension liquid-gas ([2]; 303.15 K, x1 = 1): 26.98 ± 0.5 mN/m; surface tension liquid-gas ([2]; 308.15 K, x1 = 0.05): 37.39 ± 0.58 mN/m; surface tension liquid-gas ([2]; 308.15 K, x1 = 0.097): 33.78 ± 0.52 mN/m; surface tension liquid-gas ([2]; 308.15 K, x1 = 0.258): 31.79 ± 0.5 mN/m; surface tension liquid-gas ([2]; 308.15 K, x1 = 0.329): 30.74 ± 0.49 mN/m; surface tension liquid-gas ([2]; 308.15 K, x1 = 0.389): 29.81 ± 0.48 mN/m; surface tension liquid-gas ([2]; 308.15 K, x1 = 0.535): 29.48 ± 0.49 mN/m; surface tension liquid-gas ([2]; 308.15 K, x1 = 0.623): 28.74 ± 0.49 mN/m; surface tension liquid-gas ([2]; 308.15 K, x1 = 0.768): 28.29 ± 0.49 mN/m; surface tension liquid-gas ([2]; 308.15 K, x1 = 0.864): 27.76 ± 0.49 mN/m; surface tension liquid-gas ([2]; 308.15 K, x1 = 0.899): 27.11 ± 0.49 mN/m; surface tension liquid-gas ([2]; 308.15 K, x1 = 1): 26.61 ± 0.49 mN/m; surface tension liquid-gas ([2]; 313.15 K, x1 = 0.05): 37.15 ± 0.58 mN/m; surface tension liquid-gas ([2]; 313.15 K, x1 = 0.097): 33.6 ± 0.52 mN/m; surface tension liquid-gas ([2]; 313.15 K, x1 = 0.258): 31.57 ± 0.5 mN/m; surface tension liquid-gas ([2]; 313.15 K, x1 = 0.329): 30.48 ± 0.49 mN/m; surface tension liquid-gas ([2]; 313.15 K, x1 = 0.389): 29.55 ± 0.48 mN/m; surface tension liquid-gas ([2]; 313.15 K, x1 = 0.535): 29.23 ± 0.49 mN/m; surface tension liquid-gas ([2]; 313.15 K, x1 = 0.623): 28.48 ± 0.48 mN/m; surface tension liquid-gas ([2]; 313.15 K, x1 = 0.768): 28.02 ± 0.49 mN/m; surface tension liquid-gas ([2]; 313.15 K, x1 = 0.864): 27.47 ± 0.49 mN/m; surface tension liquid-gas ([2]; 313.15 K, x1 = 0.899): 26.77 ± 0.48 mN/m; surface tension liquid-gas ([2]; 313.15 K, x1 = 1): 26.31 ± 0.49 mN/m; surface tension liquid-gas ([2]; 318.15 K, x1 = 0.05): 36.9 ± 0.57 mN/m; surface tension liquid-gas ([2]; 318.15 K, x1 = 0.097): 33.4 ± 0.51 mN/m; surface tension liquid-gas ([2]; 318.15 K, x1 = 0.258): 31.34 ± 0.49 mN/m; surface tension liquid-gas ([2]; 318.15 K, x1 = 0.329): 30.26 ± 0.48 mN/m; surface tension liquid-gas ([2]; 318.15 K, x1 = 0.389): 29.32 ± 0.48 mN/m; surface tension liquid-gas ([2]; 318.15 K, x1 = 0.535): 28.96 ± 0.48 mN/m; surface tension liquid-gas ([2]; 318.15 K, x1 = 0.623): 28.18 ± 0.48 mN/m; surface tension liquid-gas ([2]; 318.15 K, x1 = 0.768): 27.73 ± 0.48 mN/m; surface tension liquid-gas ([2]; 318.15 K, x1 = 0.864): 27.18 ± 0.49 mN/m; surface tension liquid-gas ([2]; 318.15 K, x1 = 0.899): 26.45 ± 0.48 mN/m; surface tension liquid-gas ([2]; 318.15 K, x1 = 1): 25.96 ± 0.48 mN/m; surface tension liquid-gas ([2]; 323.15 K, x1 = 0.05): 36.69 ± 0.57 mN/m; surface tension liquid-gas ([2]; 323.15 K, x1 = 0.097): 33.21 ± 0.51 mN/m; surface tension liquid-gas ([2]; 323.15 K, x1 = 0.258): 31.1 ± 0.49 mN/m; surface tension liquid-gas ([2]; 323.15 K, x1 = 0.329): 30.01 ± 0.48 mN/m; surface tension liquid-gas ([2]; 323.15 K, x1 = 0.389): 29.04 ± 0.47 mN/m; surface tension liquid-gas ([2]; 323.15 K, x1 = 0.535): 28.68 ± 0.48 mN/m; surface tension liquid-gas ([2]; 323.15 K, x1 = 0.623): 27.88 ± 0.47 mN/m; surface tension liquid-gas ([2]; 323.15 K, x1 = 0.768): 27.4 ± 0.48 mN/m; surface tension liquid-gas ([2]; 323.15 K, x1 = 0.864): 26.84 ± 0.48 mN/m; surface tension liquid-gas ([2]; 323.15 K, x1 = 0.899): 26.15 ± 0.47 mN/m; surface tension liquid-gas ([2]; 323.15 K, x1 = 1): 25.63 ± 0.47 mN/m
